# Assays:
# Format in all cases: cell-based
# [1] = tested on: Crypthecodinium cohnii ATCC 30772; assay: Culture of C. cohnii in acetic acid pH-stat fermenter with propionic acid in the medium (Example 1); conditions: propionic acid 1% v/v
# Experimental: The growth medium used for the first culture contained (initially) propionic acid (1% v/v), sodium acetate (8 g/L), yeast extract (7.5 g/L) and sea salts (25 g/L). The growth medium used for the second culture was the same but with the propionic acid omitted. Before use, the pH of each growth medium was adjusted to 6.5 by the addition of NaOH and the medium was then autoclaved at 121° C. for 1 hour.
# The first and second cultures used the strain of Crypthecodinium cohnii available from the American Type Culture Collection and identified by the number 30772 (C. cohnii ATCC 30772).
# The apparatus included a 5 L fermenter 10 of known type. The fermenter 10 was provided with a pH electrode 11 that was positioned in the fermenter 10 for monitoring the pH of the growth medium in the fermenter 10. The pH electrode 11 was connected via a control device 12 to a pump 13. The control device 12 was programmed to cause the pump 13 to pump acetic acid (50% v/v) from a reservoir 14 into the fermenter 10 when the pH electrode 11 detected a pH greater than a predetermined value (in this case pH 6.5 for both the first and second cultures).
# If, during the culture, the pH fell below 6.5, the pH was brought back to 6.5 by adding KOH (2M). This was done automatically.
# The fermenter 10 was also provided with a thermometer (not shown) and a heater (not shown) arranged to maintain the growth medium (and the C. cohnii 30772) at a desired temperature within the fermenter 10 (in this case 27° C. for both the first and second cultures).
# The fermenter 10 was also provided with an aerator (not shown) that was connected to a source of air (not shown) for aerating the growth medium within the fermenter 10. An oxygen sensor (not shown) was positioned for measuring dissolved oxygen concentration in the growth medium within the fermenter 10. A stirrer (not shown) was provided for stirring the growth medium (and the C. cohnii 30772). The oxygen sensor was connected to the stirrer by a control device (not shown) for varying the speed of the stirrer in response to the oxygen concentration detected by the oxygen sensor so as to maintain the oxygen concentration at a desired level. For both the first and second cultures the aerator was set to aerate the culture at a rate of 1 volume of air per volume of culture per minute. The control device connected to the oxygen sensor and the stirrer was set so that the dissolved oxygen concentration was maintained above 30% of air saturation (the initial stirrer speed being 300 rpm).
# To start each culture, 3.5 L of the appropriate growth medium was added to the fermenter 10. An inoculum of C. cohnii 30772 in 880 ml medium containing acetic acid/acetate, yeast extract and sea salt was then added to the fermenter (the preparation of the inoculum is described below). The fermenter 10 was then closed and the culture was heated to the desired operating temperature, aerated and stirred as described above.
# In both the first and second cultures, the control device 12 caused the pump 13 to pump acetic acid into the fermenter 10 so as to maintain the pH at 6.5. This process, sometimes referred to as pH-stat operation, is described in detail in WO 01/04338. Briefly, it is believed that the Crypthecodinium cohnii metabolises the acetate in the growth medium (either in the form of acetate or acetic acid) as a carbon source. […]
# During the first and second cultures, samples of the cultures were taken at time intervals. Each sample was analysed to determine dry cell weight. […]
# [2] = tested on: Crypthecodinium cohnii 30772; assay: Culture of C. cohnii with glucose as main carbon source with propionic acid in the medium (Example 2); conditions: propionic acid 1% v/v, glucose 60 g/L
# Experimental: The growth medium used for the third culture contained (initially) propionic acid (1% v/v), glucose (60 g/L—autoclaved separately), yeast extract (7.5 g/L) and sea salts (25 g). The growth medium used for the fourth culture was the same but with the propionic acid omitted. In each case, the pH was 6.5. The microorganism used was Crypthecodinium cohnii 30772. For each of the third and fourth cultures, the Crypthecodinium cohnii was grown in a 5 L fermenter. The cultures were initiated by inoculating 3.5 L of the appropriate growth medium with 350 ml of a 3 day old shaking-flask culture of Crypthecodinium cohnii. The inoculum for the third culture was prepared using the same growth medium as that used in the third culture (i.e., with propionic acid) and the inoculum for the fourth culture was prepared using the same growth medium as that used in the fourth culture (i.e., without propionic acid). Cultures were aerated at 1 volume of air per volume of culture per minute and the dissolved oxygen concentration was maintained above 30% of air saturation by increasing the stirrer speed as required, from an initial speed of 300 rpm. The growth temperature was 27° C. and the pH was maintained at 6.5 by addition of KOH (2 M) and H2SO4 (1 M).
# [3] = tested on: Crypthecodinium cohnii (ATCC 30541); assay: Culture of C. cohnii 30541 in acetic acid pH-stat fermenters with propionic acid (Example 3)
# Experimental: The value of including propionic acid in the culture medium was also shown with another strain of Crypthecodinium cohnii (ATCC 30541). This strain was grown on acetic acid in pH-stat fermenters as described in Example 1 with and without the inclusion of propionic acid at 1% of the volume of the initial culture medium. [table]
# [4] = first culture, acetic acid pH-stat
# [5] = 1% propionic acid versus without
# [6] = propionic acid 1%, samples after 140-150 hours growth
structure (smiles),measurement,setting,value
CCC(=O)O [propionic acid],amount of DHA produced (overall),[1]; [4],6 to 8 g/L
same,cellular lipid content,[1]; [4],55-65 % of the dry cell weight
same,content of docosahexaenoic acid,[1]; [4],35-40 % of the total lipid
same,"forms of the microorganism present (cysts / swimmers), microscopic observation","[1]; first culture, after 24 hours",only non-motile cysts were present
same,dry cell weight in the first culture (with propionic acid) relative to the second culture (without propionic acid),"[1]; acetic acid/acetate carbon source, later stages of the cultures, FIG. 2",approximately double
same,amount of total lipid produced relative to the fourth culture (without propionic acid),[2]; FIG. 4,greater than twice
same,amount of docosahexaenoic acid produced relative to the fourth culture (without propionic acid),[2]; FIG. 5,greater than twice
same,dry cell weight greater than in the fourth culture (without propionic acid),"[2]; later stages of the culture, FIG. 3",about 20%
same,increase in the amount of docosahexaenoic acid produced in the culture,[3]; [5],about 85%
same,increase in the dry cell weight produced in the culture,[3]; [5],over 60%
same,Cell dry wt,[3]; [6],75 g/L
same,DHA in lipid,[3]; [6],33 % w/w
same,Lipid in cells,[3]; [6],20 % w/w
same,Total DHA produced,[3]; [6],5 g/L

# — patent US7674609B2, “Culture of Crypthecodinium cohnii and microorganisms derived therefrom” (The University of Hull, priority 2001, dated 2010)
